Results taken from patent publication US20080234232A1, “Methods and compositions for targeting AFAP” (priority 2007, published 2008).

Legend:
PI3K = experiment: Immunofluorescence of Ptdlns-3,4,5-P3 production in SYF/cSrc cells; type: cell-based, mouse; conditions: for PMA-induced Ptdlns-3,4,5-P3 production: 100 nM PMA with 6 μM bisindolylmaleimide [I], 50 nM wortmannin, LY294002 or 5 μM PP1
Method: SYF/cSrc cells were serum-starved for 24 hours. Cells stimulated with 10% serum (panels c-f), 100 nM PMA for 5 (panels g-h), or 15 minutes (panels i-j); as well as treated with 100 nM PMA in combination with 6 μM bisindolylmaleimide [I] (panels k-I) or 50 nM wortmannin (panels m-n). Cells treated with 100 nM PMA in combination with 5 μM PP1 (panel o-p) and Ptdlns-3,4,5-P3 levels evaluated. Cells were immunolabeled with a PI-3,4,5-P3-specific antibody (Echelon, Inc.;1:100) and TRITC-phalloidin (1:500). Secondary antibody for anti-PI-3,4,5-P3 (1:100) was Alexa IgM 647 anti-mouse (1:200). Bars represent 20 μm.
(§1) SYF, SYF/cSrc, p85α+/+ and p85−/− cells were cultured in standard culture media. Transient transfections of SYF, SYF/cSrc, p85α+/+ cells for immunofluorescence were carried out using LipofectAMINE™ Reagent (Invitrogen) as per manufacturer's protocol. Briefly, Approximately 5.0-8.0×10^4 cells per well were transfected at 50-70% confluent on coverstips with 2-4 μg of plasmid DNA and incubated for 3-4 hours. Thirty-six hours after transfection, cells were serum starved for 12 hours, treated, and subsequently fixed and permeablized as previously described (Qian, Y. et. al., 1998). Cells were treated with a PKC activator, 100 nM PMA for 5 or 15 minutes or in combination with the following pretreatments; a PKC inhibitor, 6 μM bisindolylmaleimide [I] for six hours; or PI3K inhibitor, 10 μM LY294002 for six hours; 50 nM Wortmannin for 30 minutes; and/or a Src family inhibitor, 5 μM PP1 for six hours. For actin labeling, a 1:500 dilution of TRITC-phalloidin was used as labeled in the figures. Primary antibody concentrations used were diluted in 5% Bovine Serum Albumin (BSA) dissolved in 1× phosphate-buffered saline (PBS): EC10 mAb-1:500; Phospho-Src Family (Y416) pAb-1:250; Anti-PI-3,4,5-P3 mAb-1:100; Anti-AFAP-110 (F1)pAb-1:1000; Anti-cSrc pAb-1:500; Anti-flag-1:1000. All fluorescent secondary and phalloidin antibodies were diluted 1:200 in 5% BSA, and are labeled according to figure legends. Cells were washed and mounted on slides with Fluoromount-G (Fisher). A Zeiss LSM 510 confocal microscope was used to scan images of about 1 μM in thickness. To prevent cross-contamination between the different fluorochromes, each channel was imaged sequentially using the multitrack recording module before merging the images. For all figures, representative cells are shown (>100 cells examined per image shown).
Ptdlns-3,4,5-P3 production was measured using the anti-Ptdlns-3,4,5-P3 antibody (Echelon, inc.) for analysis by immunofluorescence and contrasted with stress filament integrity, measured using TRITC-phalloidin as previously described (Chen, R. et. al., 2002; Hama, H. et. al., 2004). SYF/cSrc cells were left untreated or treated with serum as controls for PI3K activation. […] In addition, SYF/cSrc cells were stimulated with PMA for 5 or 15 minutes.

PH1 domain of AFAP-110 [1] = target: T1, PH1 domain of AFAP-110 (Gallus gallus, UniProt Q90738); experiment: Lipid sedimentation assay, GST-PH1; type: binding; conditions: PC vesicles with lipid 19:1 (PC:PS 7:3), 0.025 mM GST fusion protein
T1 construct: AFAP-110 contains two PH domains, one amino terminal (PH1) and the other carboxy terminal (PH2); made in house; host or cells: bacteria
Method: E) Lipid sedimentation assay was performed using pleckstrin homology fusion protein GST-PH1 as described in the methods sections. The GST-PH1 fusion protein has the capacity to co-sediment with several lipids containing vesicles as indicated in the pellet (P). Soluble fractions (S) containing unbound GST-PH1 purified fusion proteins were resolved by SDS-PAGE and detected by Coomassie stain.
A sedimentation assay was used to detect PH domain protein association with membrane phospholipids. Phospholipid stock solutions: 1 mg/ml L-α-Ptdlns-4-P, 1.0 mg/ml 1,2-dipalmitoyl-sn-glycero-3-Ptdlns-3-P, 0.1 mg/ml 1,2-dioleoyl-sn-glycero-3-Ptdlns-3,4-P2, and 1 mg/ml L-α-Ptdlns-4,5-P2 in chloroform:methanol:water (60:30:4). However, 10 mg/ml L-α-phosphatidylinositol, 0.1 mg/ml L-α Ptdlns-3-P, 0.2 mg/ml L-α-Ptdlns-3,4,5-P3, 10 mg/ml L-α-phosphatidylserine, and 10 mg/ml L-α-phosphatidylcholine in chloroform neat. All lipid stocks were purged with dry N2 and stored −20° C. The lipid vesicles were prepared as follows utilizing a sonication method. Briefly, in a heavy walled tube, PC and another stock phospholipid (e.g. Ptdlns, Ptdlns-3-P, Ptdlns-4-P, Ptdlns-3,4-P2, Ptdlns-3,5-P2, Ptdlns-3,4,5-P3, or PC) were combined in a 19:1 molar ratio; PC and PS were combined in a 7:3 molar ratio. Lipids were dried with a stream of N2 and traces of solvent were removed by vacuum and resuspended to 5.2 mM PC in buffer B [10 mM HEPES, pH 7.5, 50 mM KCl, 0.5 mM EGTA, and 1.0 mM MgCl2]. The resulting phospholipid sheets were sonicated to form vesicles. Samples were prepared to contain 1.7 mM vesicle PC and 0.025 mM recombinant GST fusion protein (DAPP1 or PH1) in buffer B. Samples were incubated 60 min and centrifuged with a Beckman Airfuge for 15 min at room temperature. 16% of the supernatant and 100% of the pellet from each sample was used for analysis by Laemmli method of SDS polyacrylamide gel electrophoresis. The gels were stained with SYPRO Orange or Coomassie Blue to visualize the proteins.

PH1 domain of AFAP-110 [2] = target: T1, PH1 domain of AFAP-110; experiment: Lipid binding assay (Far Western), GST-PH1; conditions: 0.5 μg/ml fusion protein, lipids spotted on membrane
Method: FIG. 5: The phospholipid binding properties of the PH domains of AFAP-110. A) Pleckstrin homology fusion proteins, GST-PH1, GST-PH2 and GST-DAPP1, were purified from bacteria by affinity chromatography. Phospholipids were spotted onto PVDF membranes as described in the methods section. The membranes were incubated overnight with 0.5 μg/ml • GST-PH1, GST-PH2 or GST-DAPP1. Washed membranes were incubated with anti-GST antibody and exposed to film.
B) Pleckstrin homology fusion protein, GST-PH1, was purified from bacteria by affinity chromatography. Two-fold changes in concentration (1.6 pg-100.0 pg) of phospholipids were spotted onto PVDF membranes as described in the methods section. The PIP arrays were incubated with 0.5 μg/ml fusion protein and probed with anti-GST antibody.
Pleckstrin homology (PH) fusion proteins GST-PH1, GST-PH2 and GST-DAPP1, were purified from bacteria by affinity chromatography. A Far Western Blot procedure was used for detecting the fusion protein binding to nitrocellulose immobilized phospholipids (Stevenson, J. Met. al., 1998); PIP strips and PIP arrays were purchased from Echelon, Inc. Overlay assays measured the relative amounts of GST-tagged fusion protein bound to spotted phospholipids. A plasmid encoding GST-DAPP1 previously shown to bind Ptdlns-3,4-P2 and Ptdlns-3,4,5-P3 (Dowler, S. et. al., 1999) was used as a control, kindly provided by Mark Lemmon (Lemmon, M. A., 2003). The membranes were wetted with methanol and then transferred to blocking solution composed of 3% BSA in TBS containing 1% Tween-20 (TBS-T) for 1 hour at 4° C. Membranes were incubated with 0.5 μg/ml each fusion proteins in TBS-T overnight at 4° C. Following incubation, membranes were rinsed three times with TBS-T, washed for 5 minutes and incubated at 4° C. for 1 hour with anti-GST antibody (1:20000 in TBS-T). Following the standard wash procedure, membranes were incubated at 4° C. for 30 minutes with peroxidase-conjugated secondary antibody (1:30000 in TBS-T). The washed membranes were incubated with chemiluminescence reagent and exposed to X-ray film.

[3] = test system: AFAP-110 colocalization with cSrc and cSrc activation; experiment: Immunofluorescence: PMA-induced colocalization of AFAP-110 with cSrc and cSrc activation in mouse embryo fibroblasts; type: cell-based; conditions: 100 nM PMA 15 min
Method: FIG. 1: LY294002 blocks PMA-induced colocalization between AFAP-110 and cSrc, and subsequent cSrc activation. A) SYF cells transiently co-expressing GFP-AFAP-110 and cSrc were untreated (panels a-d), treated with 100 nM PMA for 15 minutes (panels e-h), or treated with PMA and either 6 μM bisindolylmaleimide (panels i-I), 10 μM LY294002 (panels m-p) or 50 nM Wortmannin (panels q-t). Fixed cells were immunolabeled with avian specific cSrc antibody, EC10 (1:500), and phospho-Src-family (Tyr416) (1:250) as described in the methods section. Secondary antibodies used were Atexa 546 anti-mouse for EC10 and Alexa 647 anti-rabbit for phospho-Src-family (Tyr416). A merged image was generated to determine colocalization between AFAP-110 and cSrc. Bars represent 20 μM.
D) Knockout MEFs (p85−/−) were transfected with GFP-AFAP-110 and cSrc. Fixed cells were immunolabeled with EC10 (1:500) and phospho-Src-family (Tyr416) (1:250) as described in the methods section. Secondary antibodies used were Alexa 546 anti-mouse for EC10 and Alexa 647 anti-rabbit for phospho-Src-family (Tyr416). Cells treated with 100 riM PMA for 15 minutes (panels e-h). Images were merged to determine colocalization of cSrc and GFP-AFAP-110. Bars represent 20 μm. Mouse embryo fibroblast cells that express the p85α isoform of the PI3K regulatory subunit (p85α+/+) were transfected with GFP-AFAP-110 and cSrc. Fixed cells were immunolabeled with EC10 (1:500) and phospho-Src-family (Tyr416) (1:250) as described in the methods section. Secondary antibodies used were Alexa 546 anti-mouse for EC10 and Alexa 647 anti-rabbit for phospho-Src-family (Tyr416). Images were merged to determine colocalization of cSrc and GFP-AFAP-110. Bars represent 20 μm.
as §1
We utilized SYF cell lines as a model system, mouse embryo fibroblasts engineered to contain null mutations in the c-src,fyn, and c-yes genes (Klinghoffer, R. A. et. al., 1999). The cells were transiently co-transfected with constructs that encode cSrc and GFP-tagged AFAP-110, as previously described (Gatesman, A. et. al., 2004). […]

cSrc = experiment: Immunofluorescence: translocation of cSrc from the perinuclear region to the cell periphery; type: cell-based, mouse; conditions: SYF cells, 100 nM PMA with 6 μM bisindolylmaleimide or 10 μM LY
Method: FIG. 2: Inhibition of PI3K blocks translocation of cSrc from the perinuclear region of mouse embryo fibroblast in response to PMA treatment. SYF and p85−/− null cells were transiently transfected with cSrc and labeled for avian cSrc using EC10, an avian-specific monoclonal antibody (1:500). EC10 was visualized with anti-mouse Atexa Fluor 488 (false colored red for consistency). Cells treated with 100 nM PMA (panel b) induced translocation of cSrc to the cell periphery as indicated by the arrows. However, cells treated with 100 nM PMA in conjunction with 6 μM bisindolylmaleimide (panel c) or 10 μM LY (panel d) blocked the translocation of cSrc as indicated by the arrows. […] (n=nucleus) Bars represent 20 μM.
as §1, with “All fluorescent secondary and phalloidin antibodies were diluted 1:200 in 5% BSA, and are labeled according to figure legends. Cells were washed and mounted on slides with Fluoromount-G (Fisher). A Zeiss LSM 510 confocal microscope was used to scan images of about 1 μM in thickness. To prevent cross-contamination between the different fluorochromes, each channel was imaged sequentially using the multitrack recording module before merging the images. For all figures, representative cells are shown (>100 cells examined per image shown).” left out

[4] = SYF cells co-expressing GFP-AFAP-110 and cSrc, pretreatment 6 μM bisindolylmaleimide, 10 μM LY294002 or 50 nM Wortmannin

T1 sequence (Q90738 153-249 limits assumed): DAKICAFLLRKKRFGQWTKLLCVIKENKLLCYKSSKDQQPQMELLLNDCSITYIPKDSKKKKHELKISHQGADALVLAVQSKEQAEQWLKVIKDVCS

| Compound | binding (co-sedimentation) of GST-PH1 to lipid vesicles containing the lipid (PH1 domain of AFAP-110 [1]) | binding of GST-PH1 to immobilized phospholipid (far western) (PH1 domain of AFAP-110 [2]) | further results |
| --- | --- | --- | --- |
| Cc1ccc(-c2nn(C(C)(C)C)c3ncnc(N)c23)cc1 [PP1] |  |  | PMA-directed changes in stress filaments and cell shape (PI3K; 100 nM PMA with 5 μM PP1): impeded; PMA-induced Ptdlns-3,4,5-P3 production (PI3K): did not block |
| CCCCCCCCCCCCCCCC(=O)OC[C@H](COP(=O)(O)O[C@@H]1[C@H](O)[C@H](OP(=O)(O)O)[C@@H](O)[C@H](O)[C@H]1O)OC(=O)CCCCCCCCCCCCCCC [Ptdlns-3-P, phosphatidylinositol-3-phosphate] | did not bind | strong binding |  |
| CN(C)CCCn1cc(C2=C(c3c[nH]c4ccccc34)C(=O)NC2=O)c2ccccc21 [bisindolylmaleimide [I]] |  |  | PMA-induced Ptdlns-3,4,5-P3 production (PI3K): blocked; PMA-induced cSrc activation (phospho-Src-family Tyr416) [3, 4]: blocked; PMA-induced colocalization of AFAP-110 with cSrc [3, 4]: blocked; PMA-induced associated morphological changes ([3]; SYF cells, pretreatment 6 μM bisindolylmaleimide or 10 μM LY294002): blocked; PMA-induced translocation of cSrc from the perinuclear region to the cell periphery (cSrc): blocked |
| Lysophosphatidic acid |  | not recognized |  |
| Phosphatidylethanolamine |  | not recognized |  |
| phosphatidic acid |  | better than any other phospholipid analyzed |  |
| phosphatidylinositol |  | did not bind |  |
| phosphatidylinositol-4-phosphate [Ptdlns-4-P] | has the capacity to bind | strong binding |  |
| phosphatidylinositol-5-phosphate [Ptdlns-5-P] | has the capacity to bind | strong binding |  |
| phosphatidylserine | has the capacity to bind | had the capacity to recognize |  |
